Measured values published in US7109370B2, “Substituted phenylketoenols” (Bayer Aktiengesellschaft, priority 1997, dated 2006).

How the values were obtained:
Format in all cases: in vivo
[1] = test system: green rice leaf hoppers (Nephotettix cincticeps); experiment: Nephotettix test (dipped rice seedlings); settings: active compound concentration 0.1%, after 6 days
Procedure: (§1) To produce a suitable preparation of active compound, 1 part by weight of active compound is mixed with the stated amount of solvent and the stated amount of emulsifier, and the concentrate is diluted with water to the desired concentration.
Rice seedlings (Oryzae sativa) are treated by being dipped into the preparation of active compound of the desired concentration and are populated with green rice leaf hoppers (Nephotettix cincticeps) while the seedlings are still moist.
After the desired period of time, the kill in % is determined. 100% means that all leaf hoppers have been killed; […] means that none of the leaf hoppers have been killed.

[2] = test system: peach aphids (Myzus persicae); experiment: Myzus test (dipped cabbage leaves); settings: active compound concentration 0.1%; after 6 days; infested cabbage leaves dipped
Procedure: as §1
Cabbage leaves (Brassica oleracea) which are heavily infested by peach aphids (Myzus persicae) are treated by being dipped into the preparation of active compound of the desired concentration.
After the desired period of time, the kill in % is determined. 100% means that all aphids have been killed; 0% means that none of the aphids have been killed.

[3] = test system: greenhouse red spider mite Tetranychus urticae; experiment: Tetranychus test (OP-resistant/dip treatment); settings: after 14 days, infested bean plants dipped
Procedure: Tetranychus Test (OP-Resistant/Dip Treatment)
as §1
Bean plants (Phaseolus vulgaris) which are heavily infested by all stages of the greenhouse red spider mite Tetranychus urticae are dipped into a preparation of active compound of the desired concentration.
After the desired period of time, the kill in % is determined. 100% means that all spider mites have been killed; 0% means that none of the spider mites have been killed.

[4] = test system: larvae of the mustard beetle (Phaedon cochleariae); experiment: Phaedon larvae test (dipped cabbage leaves); settings: active compound concentration 0.1%, after 7 days
Procedure: Phaedon Larvae Test [table] To produce a suitable preparation of active compound, 1 part by weight of active compound is mixed with the stated amount of solvent and the stated amount of emulsifier, and the concentrate is diluted with water to the desired concentration. Cabbage leaves (Brassica oleracea) are treated by being dipped into the preparation of active compound of the desired concentration and are populated with larvae of the mustard beetle (Phaedon cochleariae) while the leaves are still moist.

[5] = test system: caterpillars of the owlet moth (Spodoptera frugiperda); experiment: Spodoptera frugiperda test (dipped cabbage leaves); settings: active compound concentration 0.1%, after 7 days
Procedure: Spodoptera frugiperda Test
as §1
Cabbage leaves (Brassica oleracea) are treated by being dipped into the preparation of active compound of the desired concentration and are populated with caterpillars of the owlet moth (Spodoptera frugiperda) while the leaves are still moist.
After the desired period of time, the kill in % is determined. 100% means that all caterpillars have been killed; 0% means that none of the caterpillars have been killed.

Aphis fabae = experiment: Critical concentration test/root-systemic action, Aphis fabae; settings: soil, read-out: root-systemic effect (mortality)
Procedure: Critical Concentration Test/Root-Systemic Action
as §1
(§2) The preparation of active compound is intimately mixed with soil. The concentration of the active compound in the preparation is of practically no importance here, only the amount by weight of active compound per unit volume of soil, which is given in ppm (=mg/l), being decisive. The treated soil is transferred into pots and these are planted with pregerminated broad beans. The active compound can in this way be taken up from the soil by the roots of the plants and be transported into the leaves.
(§3) After a further 6 days, evaluation is carried out by counting or estimating the dead animals. The root-systemic action of the active compound is deduced from the mortality figures. It is 100% if all the test animals have been killed and 0% if just as many test insects are still alive as in the case of the untreated control.

Myzus persicae = experiment: Critical concentration test/root-systemic action, Myzus persicae; settings: 20 ppm active compound in soil; peppers; populated after 7 days, evaluated after a further 6 days
Procedure: Critical Concentration Test/Root-systemic Action
as §1
as §2, with “peppers at the cotyledon stage.” for “pregerminated broad beans.”
as §3

[6] = active compound concentration 0.1%
[7] = active compound concentration 0.02%

`CCOC(=O)OC1=C(c2c(C)cc(Br)cc2C)C(=O)NC12CCOC(C)C2` (centres unmarked) [I-c-11] gave a kill in % [1] of 100% and a kill in % [2] of 100%.

In the case of `CCOC(=O)OC1=C(c2ccc(C)cc2C)C(=O)NC12CCOC(C)C2` (centres unmarked) [I-c-4], the kill in % [1] is reported as 100% and the “effect (kill in %)” value [3, 6] is reported as 100%.

For `Cc1cc(Cl)cc(Cl)c1C1=C(O)C2(CCOC(C)C2)NC1=O` (single isomer, unassigned) [I-a-8], the kill in % [4] was 100%.

For `CCOC(=O)OC1=C(c2cc(C)ccc2C)C(=O)NC12CCOC(C)C2` (centres unmarked) [I-c-15], the kill in % [5] was 100%.

Work on `Cc1cc(C)c(C2=C(OC(=O)C(C)C)C3(CCOC(C)C3)NC2=O)c(C)c1C` (single isomer, unassigned) [I-b-11] yielded a kill in % [1] of 100%.

In the case of `CCOC(=O)OC1=C(c2ccc(C)cc2C)C(=O)NC12CCOC(C)C2` (centres unmarked) [I-c-3], the kill in % [1] is reported as 100%, the kill in % [5] is reported as 100% and the “effect (kill in %)” value [3, 6] is reported as 100%. It also gave a kill in % [4] of 100%.

Work on `Cc1cc(C)c(C2=C(O)C3(CCOC(C)C3)NC2=O)c(C)c1C` (single isomer, unassigned) [I-a-10] yielded a kill in % [2] of 100%.

In the case of `CCOC(=O)OC1=C(c2c(C)cc(C)cc2C)C(=O)NC12CCOC(C)C2` (centres unmarked) [I-c-1], the kill in % [1] is reported as 100%, the mortality at 20 ppm (Aphis fabae) is reported as 100% and the “effect (kill in %)” value [3, 6] is reported as 100%.

`CCc1ccc(C2=C(OC(=O)c3cccs3)C3(CCOC(C)C3)NC2=O)c(Cl)c1` (single isomer, unassigned) [I-b-23] was tested, and the kill in % [1] was 100% and the kill in % [4] was 100%.

`Cc1cc(Cl)cc(C)c1C1=C(OC(=O)C(C)C)C2(CCOC(C)C2)NC1=O` (centres unmarked) [I-b-25] was tested, and the “root-systemic effect (mortality)” value (Myzus persicae) was 100%.

`Cc1ccc(C2=C(O)C3(CCOC(C)C3)NC2=O)c(C)c1` (single isomer, unassigned) [I-a-4] was tested, and the “effect (kill in %)” value [3, 6] was 100%.

`Cc1cc(Cl)c(C2=C(O)C3(CCOC(C)C3)NC2=O)c(Cl)c1` (single isomer, unassigned) [I-a-9] was tested, and the kill in % [2] was 100% and the “effect (kill in %)” value [3, 6] was 100%.

In the case of `CC(=O)OC1=C(c2c(C)cc(C)cc2C)C(=O)NC12CCOC(C)C2` (single isomer, unassigned) [I-b-5], the kill in % [1] is reported as 100%.

`Cc1ccc(C)c(C2=C(O)C3(CCOC(C)C3)NC2=O)c1` (single isomer, unassigned) [I-a-20] showed a kill in % [5] of 100% and a kill in % [2] of 100%.

Compound `Cc1cc(Cl)cc(Br)c1C1=C(O)C2(CCOC(C)C2)NC1=O` (single isomer, unassigned) [I-a-19] has a kill in % [2] of 100%.

`Cc1ccc(C2=C(OC(=O)C(C)C)C3(CCOC(C)C3)NC2=O)c(C)c1` (single isomer, unassigned) [I-b-4] was tested, and the kill in % [1] was 100%, the “effect (kill in %)” value [3, 6] was 100% and the kill in % [4] was 100%.

With `Cc1cc(C)c(C2=C(OC(=O)C(C)C)C3(CCOC(C)C3)NC2=O)c(C)c1` (single isomer, unassigned) [I-b-3] the “effect (kill in %)” value [3, 6] was 100%.

In the case of `CCOC(=O)OC1=C(c2cc(C)c(C)cc2C)C(=O)NC12CCOC(C)C2` (centres unmarked) [I-c-7], the kill in % [1] is reported as 100%.

In the case of `Cc1ccc(C2=C(OC(=O)C(C)C)C3(CCOC(C)C3)NC2=O)c(C)c1` (single isomer, unassigned) [I-b-7], the kill in % [1] is reported as 100% and the “effect (kill in %)” value [3, 6] is reported as 100%.

With `Cc1cc(Br)cc(C)c1C1=C(O)C2(CCOC(C)C2)NC1=O` (single isomer, unassigned) [I-a-18] the kill in % [2] was 100%.

Work on `CCc1cc(Br)c(C2=C(O)C3(CCOC(C)C3)NC2=O)c(Br)c1` (single isomer, unassigned) [I-a-21] yielded a kill in % [2] of 100%.

`CCc1ccc(C2=C(O)C3(CCOC(C)C3)NC2=O)c(Cl)c1` (single isomer, unassigned) [I-a-22] was tested, and the kill in % [1] was 100%.

In the case of `CC1CC2(CCO1)NC(=O)C(c1ccc(Br)cc1Cl)=C2OC(=O)CC(C)(C)C` (single isomer, unassigned) [I-b-16], the “effect (kill in %)” value [3, 7] is reported as 100%.

With `Cc1cc(C#N)cc(C)c1C1=C(O)C2(CCOC(C)C2)NC1=O` (single isomer, unassigned) [I-a-12] the kill in % [2] was 100%.

With `Cc1cc(C)c(C2=C(OC(=O)C(C)C)C3(CCOC(C)C3)NC2=O)c(C)c1` (centres unmarked) [I-b-1] the kill in % [1] was 100% and the mortality at 20 ppm (Aphis fabae) was 100%.

In the case of `CC1CC2(CCO1)NC(=O)C(c1ccc(Br)cc1Cl)=C2O` (single isomer, unassigned) [I-a-15], the kill in % [2] is reported as 100%.

`CCOC(=O)OC1=C(c2ccc(Cl)cc2Cl)C(=O)NC12CCOC(C)C2` (centres unmarked) [I-c-12] showed a kill in % [2] of 100%.

For `CC1CC2(CCO1)NC(=O)C(c1ccc(Br)cc1Cl)=C2OC(=O)C(C)C` (single isomer, unassigned) [I-b-15], the “effect (kill in %)” value [3, 7] was 100%.

For `CC(=O)OC1=C(c2c(C)cc(C)cc2C)C(=O)NC12CCOC(C)C2` (single isomer, unassigned) [I-b-2], the kill in % [1] was 100% and the “effect (kill in %)” value [3, 6] was 100%.

`CCOC(=O)OC1=C(c2c(C)cc(C)c(C)c2C)C(=O)NC12CCOC(C)C2` (centres unmarked) [I-c-5] gave a kill in % [1] of 100%.

In the case of `Cc1cc(Cl)ccc1C1=C(OC(=O)C(C)C)C2(CCOC(C)C2)NC1=O` (single isomer, unassigned) [I-b-17], the kill in % [1] is reported as 100%, the kill in % [2] is reported as 100% and the “effect (kill in %)” value [3, 7] is reported as 100%.

In the case of `Cc1ccc(C2=C(OC(=O)C(C)C)C3(CCOC(C)C3)NC2=O)c(Cl)c1` (single isomer, unassigned) [I-b-8], the kill in % [1] is reported as 100%, the “effect (kill in %)” value [3, 6] is reported as 100% and the kill in % [4] is reported as 100%.

`CCc1ccc(C2=C(OC(=O)C(C)C)C3(CCOC(C)C3)NC2=O)c(Cl)c1` (single isomer, unassigned) [I-b-22] was tested, and the kill in % [1] was 100%, the “effect (kill in %)” value [3, 7] was 100% and the kill in % [4] was 100%.

Compound `Cc1cc(C)c(C2=C(O)C3(CCOC(C)C3)NC2=O)c(C)c1` (centres unmarked) [I-a-1] has a mortality at 20 ppm (Aphis fabae) of 100%.

`CC(=O)OC1=C(c2ccc(C)cc2C)C(=O)NC12CCOC(C)C2` (single isomer, unassigned) [I-b-6] showed a kill in % [1] of 100%.

In the case of `CCOC(=O)OC1=C(c2ccc(CC)cc2Cl)C(=O)NC12CCOC(C)C2` (centres unmarked) [I-c-13], the kill in % [5] is reported as 100%, the “effect (kill in %)” value [3, 7] is reported as 100% and the kill in % [4] is reported as 100%.

For `Cc1cc(Cl)cc(C)c1C1=C(O)C2(CCOC(C)C2)NC1=O` (single isomer, unassigned) [I-a-16], the kill in % [2] was 100% and the “root-systemic effect (mortality)” value (Myzus persicae) was 100%.

For `CCOC(=O)OC1=C(c2ccc(Br)cc2Cl)C(=O)NC12CCOC(C)C2` (centres unmarked) [I-c-8], the kill in % [2] was 100%.

`Cc1ccc(C2=C(O)C3(CCOC(C)C3)NC2=O)c(Cl)c1` (single isomer, unassigned) [I-a-7] was tested, and the kill in % [1] was 100%, the “effect (kill in %)” value [3, 6] was 100% and the kill in % [4] was 100%.
